Measured values published in US12031137B2, “Compositions comprising SASP modulators and senescence attenuators and uses thereof for modulating cellular senescence” (RSEM, LIMITED PARTNERSHIP, priority 2016, dated 2024).
Each block holds one molecule with its values, some of them ahead of it.

Assays:
[1] = target: T1, IRE1α's endoribonuclease activity (Mus musculus, UniProt Q9EQY0); assay: SEMA3A-driven senescence in J774 cells with IRE1α RNase inhibitor; assay type: cell-based
T1 construct: endogenous in cells; host or cells: J774 (J774A.1) mouse macrophage-like cells
Protocol: FIG. 7C: Representative confocal immunofluorescence staining of γH2AX and DAPI of J774 macrophages stimulated with SEMA3A (100 ng/mL) or vehicle for 7 days (Scale bars are 100 μm). Higher magnification views of the outlined areas are shown (Scale bars are 50 μm). Immunoblots (FIG. 7D) for the XBP1(s) (spliced isoform) and PCR (FIG. 7E) for XBP1(s) and unspliced XBP1 (u) in J774 cell lysates treated with vehicle, S3A (100 ng/ml) and/or 4μ8c (1 ng/ml) at day 7 post-treatment. FIG. 7F: RT-qPCR for levels of Pai1, II6, II1β, Tgf-β1, Tp53, Ire1α and Tnfα in J774 stimulated with SEMA3A alone or with 4μ8c. β-actin was used as a reference gene. ***P<0.0001, *P<0.005. Scale bars: 100 μm for C & G. High mag C is 50 μm. Data are presented as mean±SEM;
To determine whether SEMA3A-driven senescence was occurring through IRE1α's kinase or RNAse activity, the selective cell-permeable coumarin o-hydroxyaldehyde pharmacological inhibitor of IRE1α's endoribonuclease activity, 4μ8c, was used. Exposure to 4μ8c (FIG. 7D) prevented SEMA3A-induced growth arrest and abrogated SEMA3A-induced senescence (data not shown). […] Ultimately, pharmacological inhibition of the endoribonuclease activity of IRE1α inhibited production of specific senescence-associated genes Vegf-a, Tgf-β1, II-1β, II-6, Pai-1, Tp53 while there is no effect on Tnf-α or IRE1α itself (FIG. 7F).
(§1) Semi-quantitative and Real-time PCR analysis. We isolated RNA using the GenElute™ Mammalian Total RNA Miniprep Kit (Sigma) and performed a digestion with DNase I to prevent amplification of genomic DNA. We reversed transcribed the RNA using M-MLV reverse transcriptase and analyzed gene expression using SybrGreen™ in an ABI Biosystems Real-Time PCR machine. β-actin was used as a reference gene. […] We investigated the splicing of XBP-1 by incubating the XBP-1 semi-quantitative PCR product with 0.4 U/μL of PstI enzyme for 5 hrs at 37° C. followed by separation on 2.5% agarose gel.
(§2) Western blotting. We enucleated eyes at varying time points and rapidly dissected and homogenized retinas for assessment of retinal protein levels. Protein concentration from retinal homogenate and cell lysates were assessed by BCA assay (Sigma), and then 30 μg of protein analyzed for each condition by standard SDS-PAGE technique.

[2] = system: mouse model of oxygen-induced retinopathy (OIR); assay: Avascular area and pre-retinal neovascularization in OIR flatmount retinas; assay type: in vivo
[3] = system: mouse model of oxygen-induced retinopathy (OIR); assay: SA-β-gal staining of retinas in oxygen-induced retinopathy (OIR) after intravitreal injection; assay type: in vivo; settings: single intravitreal injection at P12, vs vehicle
Source text: (§3) O2-induced retinopathy. Mouse pups from different strains (C57Bl/6 WT, LyzM-Cre, LysM-Cre/IRE1^fl/fl, LysM-Cre/IRE1^+/+, IRE1^fl/fl and LysM-Cre/ROSA26EYFP^fl/fl), and their fostering mothers (CD1, Charles River) were exposed to 75% 02 from postnatal day 7 (P7) to day 12 and returned to room air. This model serves as a proxy to human ocular neovascular diseases such as ROP and diabetic retinopathy characterized by a late phase of destructive pathological angiogenesis (72, 73). Upon return to room air, hypoxia-driven neovascularization (NV) develops from P14 onwards (27). We enucleated eyes at different time points and dissected the retinas for mRNA, protein assays or flatmounting.
Senescence-associated β-galactosidase (SA-β-gal) assay. Senescence-associated β-galactosidase assays were carried out as described previously (57, 75)
Quantification of SA-β-gal in vivo. Senescence-associated β-galactosidase staining in flatmount retinas or sagittal eye sections were analyzed using Image J software as described in FIG. 14.
(§4) Intravitreal injections. P2, P10 or P12 C57BL/6 pups were anesthetized with 3.0% isoflurane and injected in the vitreous chamber with 0.5 μL of lentivirus (see “Lentivirus production”), recombinant SEMA3A (100 ng/μL), metformin (10 μg/μL) or Aflibercept (10 μg/uL) using a 10-μL Hamilton syringe fitted with a […] glass capillary tip. Approximately 254±11.0 ng/μL of lentivirus Sh_GFP and 323.3±15.3 ng/μL containing Sh_Sema3a, Lv.Cre (15.0 ng/mL), Lv.GFP (15.0 ng/mL) was injected. Virus titers were assessed with the p24 ELISA kit (ZeptoMetrix). The titers of the lentiviruses used were (in ng p24) LV.Sh_RNA IRE1α (8.52 ng/mL), and LV.Sh_RNA.GFP (8.47 ng/mL).

[4] = system: mouse model of oxygen-induced retinopathy (OIR); assay: Immunoblot and RT-qPCR of OIR retinas after intravitreal injection; assay type: in vivo; settings: intravitreal injection at P12, P14 OIR retinas
Source text: as §3, §1, §4, §2

human VEGF165 = target: T2, human VEGF165 (Homo sapiens, UniProt P15692); assay: AP-VEGF165 binding assay on plate-coated purified traps (saturation curves, KD); settings: AP-VEGF165 ligand; for Kd: read-out: VEGF165 binding (dissociation constant)
T2 construct: made in house; host or cells: HEK293T
T2 sequence (P15692 27-191 isoform P15692-4): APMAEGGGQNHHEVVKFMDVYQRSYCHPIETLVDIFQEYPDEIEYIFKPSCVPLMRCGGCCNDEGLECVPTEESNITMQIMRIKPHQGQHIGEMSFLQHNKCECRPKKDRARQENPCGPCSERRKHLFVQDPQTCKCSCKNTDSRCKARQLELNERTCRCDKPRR
Protocol: Production of AP-VEGF165. the coding sequence of the human VEGF165 variant 1 (NM_001025366) was sub-cloned in the pAPtag5 vector (GenHunter), in-frame with an Alkaline Phosphatase domain (AP-VEGF165). HEK293T cells were transfected with the AP-VEGF165 construct using a polyethylenimine (PEI) transfection method. Following the overnight transfection step, cells were cultured for an additional 60 hr in serum free media (In vitrogen). The cell media were collected and concentrated on a PES device (Pierce). The concentrated AP-VEGF165 ligand was analysed on PAGE-SDS and quantified using SimplyBlue safe stain (Life technologies).
(§5) Sema 3A and AP-VEGF165 binding assays. Saturation curves for the determinations of KD of binding to SEMA 3A or VEGF165 were obtained as follow. Wells of high protein binding 96 well plates (Maxisorp, Nunc) were coated with purified traps diluted in PBS and blocked afterward with binding buffer (PBS containing 2% casein and 0.05% Tween 20). The SEMA3A-FC (R&D systems) or AP-VEGF165 ligands were diluted in binding buffer over an extensive range of concentrations and added to wells. Following an overnight incubation, wells were washed with PBS containing 0.05% tween. Bound SEMA3a-FC was detected using an HRP-linked anti-Human IgG (Biorad) and ECL substrate (Pierce). Alternatively, bound AP-VEGF165 was detected using CPD star substrate (Roche). The Chemiluminescent signal was acquired on a TECAN reader. Dissociation constant (KD) were determined by non-linear curve fitting using the Graph Pad prism software.
(§6) The relative affinity of traps of the present invention to SEMA3A and VEGF has been assessed. Traps were prepared as described in Example 8.

SEMA3A-FC = assay: Sema 3A binding assay on plate-coated purified traps (saturation curves, KD); settings: for Binding to SEMA3A: Table 2, Yes/No
Protocol: as §5, §6

[5] = J774 stimulated with SEMA3A alone or with 4μ8c
[6] = intravitreal injection at P12 of OIR

T1 sequence (Q9EQY0 21-977): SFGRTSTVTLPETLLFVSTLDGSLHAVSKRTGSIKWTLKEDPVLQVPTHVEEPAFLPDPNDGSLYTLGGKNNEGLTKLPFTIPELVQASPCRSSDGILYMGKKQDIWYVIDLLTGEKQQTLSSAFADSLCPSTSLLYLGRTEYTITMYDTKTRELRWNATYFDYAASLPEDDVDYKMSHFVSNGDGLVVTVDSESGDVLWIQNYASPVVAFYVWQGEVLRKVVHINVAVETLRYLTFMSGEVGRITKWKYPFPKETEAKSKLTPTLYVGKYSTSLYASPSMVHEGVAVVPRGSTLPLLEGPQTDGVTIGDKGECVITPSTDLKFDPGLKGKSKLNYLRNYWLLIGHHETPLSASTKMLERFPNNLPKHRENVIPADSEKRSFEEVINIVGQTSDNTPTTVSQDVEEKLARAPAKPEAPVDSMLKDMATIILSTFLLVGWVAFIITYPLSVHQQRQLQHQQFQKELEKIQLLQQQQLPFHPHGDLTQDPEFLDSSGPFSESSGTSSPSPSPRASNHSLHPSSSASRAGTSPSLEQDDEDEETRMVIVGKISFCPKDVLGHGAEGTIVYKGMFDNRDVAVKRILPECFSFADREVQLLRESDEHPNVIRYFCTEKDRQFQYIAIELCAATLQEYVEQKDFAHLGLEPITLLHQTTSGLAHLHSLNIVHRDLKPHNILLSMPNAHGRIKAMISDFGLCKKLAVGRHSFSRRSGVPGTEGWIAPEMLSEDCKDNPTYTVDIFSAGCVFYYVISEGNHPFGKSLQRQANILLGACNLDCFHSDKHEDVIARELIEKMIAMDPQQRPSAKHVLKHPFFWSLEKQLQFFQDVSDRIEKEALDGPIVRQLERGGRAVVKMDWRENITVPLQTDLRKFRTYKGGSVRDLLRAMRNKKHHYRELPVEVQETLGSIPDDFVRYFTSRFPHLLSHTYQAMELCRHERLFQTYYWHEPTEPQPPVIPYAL

SEMA3A-mediated splicing and activation of XBP1 ([1]; J774, S3A 100 ng/ml, 4μ8c 1 ng/ml, day 7): prevented | SEMA3A-induced growth arrest ([1]; J774 cells, data not shown): prevented | SEMA3A-induced senescence ([1]; J774 cells, data not shown): abrogated | Tnf-α or IRE1α expression (RT-qPCR) [1, 5]: no effect | production of senescence-associated genes Vegf-a, Tgf-β1, Il-1β, Il-6, Pai-1, Tp53 (RT-qPCR) [1, 5]: inhibited
Molecule: Cc1cc(=O)oc2c(C=O)c(O)ccc12 [Trap 4μ8c]

Molecule: Aflibercept: recombinant fusion protein made-up of the extracellular domains of human VEGF receptors 1 and 2 and an Fc portion
pathological neovascularization at P17 OIR ([2]; intravitreal injection at P12, vs vehicle): marked decrease | rates of vascular regeneration at P14 [2, 6]: does not modulate | rates of vascular regeneration at P17 [2, 6]: does not modulate | SA-β-gal staining at P14 OIR [3]: did not significantly influence | SA-β-gal staining at P17 OIR (cellular senescence) [3]: did not significantly influence | drivers of senescence (Cdkn2a, Tp53, Il1β, Tgf-β1, Sema3a RT-qPCR) [4]: does not modulate

Kd (human VEGF165): 6.75 nM | Binding to SEMA3A (SEMA3A-FC): Yes | preference for SEMA3A over VEGF binding (SEMA3A-FC; in words): much less important | Kd (SEMA3A-FC; traps coated on plate, overnight incubation, read-out: SEMA 3A-FC binding (dissociation constant)): 0.8 nM
Molecule: Trap G: NRP1 trap a1a2-b1b2-c, aa about 22-856; SEQ ID NOs 67/68
SA-β-gal staining at P17 OIR (cellular senescence) [3]: significant attenuation

Kd (human VEGF165): 20.1 nM | Binding to SEMA3A (SEMA3A-FC): Yes | kd for SEMA3A relative to VEGF (SEMA3A-FC; see Table 6): about 20 ×
B1: Trap M: NRP1 trap a1a2-b1, aa about 22-424; SEQ ID NOs 81/82 (protein)
chain: FRNDKCGDTIKIESPGYLTSPGYPHSYHPSEKCEWLIQAPDPYQRIMINFNPHFDLEDRDCKYDYVEVFDGENENGHFRGKFCGKIAPPPVVSSGPFLFIKFVSDYETHGAGFSIRYELFKRGPECSQNYTTPSGVIKSPGFPEKYPNSLECTYIVFAPKMSEIILEFESFDLEPDSNPPGGMFCRYDRLEIWDGFPDVGPHIGRYCGQKTPGRIRSSSGILSMVFYTDSAIAKEGFSANYSVLQSSVSEDFKCMEALGMESGEIHSDQITASSQYSTNWSAERSRLNYPENGWTPGEDSYREWIQVDLGLLRFVTAVGTQGAISKETKKKYYVKTYKIDVSSNGEDWITIKEGNKPVLFQGNTNPTDVVVAVFPKPLITRFVRIKPATWETGISMRFEVYGCRSGSKENLYFQG
SA-β-gal staining at P17 OIR (cellular senescence) [3]: significant attenuation

VEGF165 binding (dissociation constant) (human VEGF165): No binding | Binding to SEMA3A (SEMA3A-FC): No | SEMA 3A-FC binding (dissociation constant) (SEMA3A-FC; traps coated on plate, overnight incubation): No binding
B2: Trap AE: NRP1 trap a1a2b1b2, aa about 22-560, D320K; SEQ ID NOs 53/54 (protein)
chain: MERGLPLLCAVLALVLAPAGAFRNDKCGDTIKIESPGYLTSPGYPHSYHPSEKCEWLIQAPDPYQRIMINFNPHFDLEDRDCKYDYVEVFDGENENGHFRGKFCGKIAPPPVVSSGPFLFIKFVSDYETHGAGFSIRYELFKRGPECSQNYTTPSGVIKSPGFPEKYPNSLECTYIVFAPKMSEIILEFESFDLEPDSNPPGGMFCRYDRLEIWDGFPDVGPHIGRYCGQKTPGRIRSSSGILSMVFYTDSAIAKEGFSANYSVLQSSVSEDFKCMEALGMESGEIHSDQITASSQYSTNWSAERSRLNYPENGWTPGEKSYREWIQVDLGLLRFVTAVGTQGAISKETKKKYYVKTYKIDVSSNGEDWITIKEGNKPVLFQGNTNPTDVVVAVFPKPLITRFVRIKPATWETGISMRFEVYGCKITDYPCSGMLGMVSGLISDSQITSSNQGDRNWMPENIRLVTSRSGWALPPAPHSYINEWLQIDLGEEKIVRGIIIQGGKHRENKVFMRKFKIGYSNNGSDWKMIMDDSKRKAKSFEGNNNYDTPELRTFPALSTRFIRIYPERATHGGLGLRMELLGCRSGSKENLYFQG
